In US6541471B1, “Benzenesulphonamide compounds” (Les Laboratoires Servier, priority 2001, dated 2003) one finds IC50 data, which are given here for 1 molecule.

Molecules are shown by their SMILES.

The IC50 is the concentration at which inhibition is half-maximal.

Experiment [1] has as its system platelet aggregation produced by 5-hydroxytryptamine in human platelet-rich plasma (PRP). The experiment in a line: Platelet aggregation in man induced by 5-hydroxytryptamine. It counts as cell-based. The conditions noted are these: 5-hydroxytryptamine 10 μM in the presence of 0.3 μM adenosine diphosphate and 1 μM adrenalin, read-out: IC50, inhibition of platelet aggregation produced by 5-hydroxytryptamine. The procedure:
(§1) Venous blood is obtained from human volunteers who have not taken aspirin for at least 14 days prior to the experiment. The blood is removed over sodium citrate (0.109 M) (1 vol. of citrate over 9 vol. of blood). Platelet-rich plasma (PRP) is obtained by centrifugation (20° C.) at 200 g for 10 minutes. The number of platelets is on average 250000 PL/mm^3. The PRP is stored at room temperature until the test and is used within 2 hours of having been taken. The TXA2 agonist U46619 is used at a concentration of 1 μM and 5-hydroxytryptamine is used at a concentration of 10 μM, the latter in the presence of 0.3 μM adenosine diphosphate and 1 μM adrenalin.

Experiment [2] has as its system platelet aggregation induced by the TXA2 agonist U46619 in human platelet-rich plasma (PRP). As to the kind of experiment: Platelet aggregation in man induced by the TXA2 agonist U46619. Format: cell-based. The following applies: U46619 1 μM, read-out: IC50, inhibition of platelet aggregation induced by the TXA2 agonist. The method, then: as §1

Turning to `CN(C)CCCOc1ccccc1CCc1cc(CCNS(=O)(=O)c2ccc(Cl)cc2)cc(CCC(=O)O)c1` [Example 2, 3-[3-(2-{[(4-Chlorophenyl)sulphonyl]amino}ethyl)-5-(2-{2-[3-(dimethylamino)propoxy]phenyl}ethyl)phenyl]propanoic acid], the IC50 in experiment [1] was 960 nM; in experiment [2] it was 3300 nM.
